Results from PubChem BioAssay (NCI).
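The compound was tested at five concentrations on cells cultured in 96-well plates, with a 48-hour exposure period. GI50 marks 50% less growth. At the TGI there is no net growth.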

How the values were obtained:
Test in all cases: NCI tumour cell line growth inhibition, 48 h
[1] = tested on: 786-0 renal
[2] = tested on: A498 renal
[3] = tested on: A549 NSCLC
[4] = tested on: ACHN renal
[5] = tested on: BT-549 breast
[6] = tested on: CAKI-1 renal
[7] = tested on: CCRF-CEM leukemia
[8] = tested on: COLO 205 colon
[9] = tested on: DU-145 prostate
[10] = tested on: EKVX NSCLC
[11] = tested on: HCC-2998 colon
[12] = tested on: HCT-116 colon
[13] = tested on: HCT-15 colon
[14] = tested on: HL-60(TB) leukemia
[15] = tested on: HOP-62 NSCLC
[16] = tested on: HOP-92 NSCLC
[17] = tested on: HS 578T breast
[18] = tested on: HT29 colon
[19] = tested on: IGROV1 ovarian
[20] = tested on: K-562 leukemia
[21] = tested on: KM12 colon
[22] = tested on: LOX IMVI melanoma
[23] = tested on: M14 melanoma
[24] = tested on: MALME-3M melanoma
[25] = tested on: MCF7 breast
[26] = tested on: MDA-MB-231 breast
[27] = tested on: MDA-MB-435
[28] = tested on: MOLT-4 leukemia
[29] = tested on: NCI-H226 lung
[30] = tested on: NCI-H23 lung
[31] = tested on: NCI-H460 lung
[32] = tested on: NCI-H522 lung
[33] = tested on: NCI/ADR-RES ovarian
[34] = tested on: OVCAR-3 ovarian
[35] = tested on: OVCAR-4 ovarian
[36] = tested on: OVCAR-5 ovarian
[37] = tested on: OVCAR-8 ovarian
[38] = tested on: PC-3 prostate
[39] = tested on: RPMI-8226 leukemia
[40] = tested on: RXF 393 renal
[41] = tested on: SF-268 CNS
[42] = tested on: SF-295 CNS
[43] = tested on: SK-MEL-2 melanoma
[44] = tested on: SK-MEL-28 melanoma
[45] = tested on: SK-MEL-5 melanoma
[46] = tested on: SK-OV-3 ovarian
[47] = tested on: SN12C renal
[48] = tested on: SNB-19 CNS
[49] = tested on: SNB-75 CNS
[50] = tested on: SW-620 colon
[51] = tested on: T-47D breast
[52] = tested on: TK-10 renal
[53] = tested on: U251 CNS
[54] = tested on: UACC-257 melanoma
[55] = tested on: UACC-62 melanoma
[56] = tested on: UO-31 renal

CNC1=C(Br)C(=O)C2=C(C1=O)C1C3=C(C(=O)C=CC3=O)C2c2ccccc21 (stereo not drawn) gave a GI50 [1] of 2.12 µM, a TGI [1] of 4.57 µM and a GI50 [2] of 24.9 µM. For the same molecule, the TGI [2] was 40.7 µM, the GI50 [3] was 3.02 µM and the GI50 [4] was 2.1 µM. It also gave a TGI [4] of 3.9 µM, a GI50 [5] of 2.45 µM and a TGI [5] of 5.98 µM. It also gave a GI50 [6] of 6.14 µM, a TGI [6] of 13.9 µM and a GI50 [7] of 0.472 µM. The TGI [7] was greater than 100 µM, the GI50 [8] was 4.07 µM and the TGI [8] was 35.4 µM. For the same molecule, the GI50 [9] was 4.06 µM, the TGI [9] was 10.3 µM and the GI50 [10] was 1.94 µM. The TGI [10] was 3.7 µM, the GI50 [11] was 3.74 µM and the TGI [11] was 11.4 µM. The GI50 [12] was 1.44 µM, the TGI [12] was 2.86 µM and the GI50 [13] was 2.19 µM. The TGI [13] was 5.55 µM, the GI50 [14] was 2.18 µM and the TGI [14] was greater than 100 µM. For the same molecule, the GI50 [15] was 7.68 µM, the TGI [15] was 23.6 µM and the GI50 [16] was 1.91 µM. The TGI [16] was 4.19 µM, the GI50 [17] was 12.7 µM and the TGI [17] was 70.3 µM. It also gave a GI50 [18] of 2.72 µM, a TGI [18] greater than 100 µM and a GI50 [19] of 4.69 µM. It also gave a TGI [19] of 18 µM, a GI50 [20] of 2.65 µM and a TGI [20] greater than 23.7 µM. For the same molecule, the GI50 [21] was 14.4 µM, the TGI [21] was 48.7 µM and the GI50 [22] was 1.74 µM. For the same molecule, the TGI [22] was 4.42 µM, the GI50 [23] was 1.98 µM and the TGI [23] was 11.5 µM. For the same molecule, the GI50 [24] was 6.96 µM, the TGI [24] was 16.2 µM and the GI50 [25] was 2.25 µM. The TGI [25] was 5.62 µM, the GI50 [26] was 2.94 µM and the TGI [26] was 4.93 µM. It also gave a GI50 [27] of 6.59 µM, a TGI [27] of 14.7 µM and a GI50 [28] of 0.473 µM. It also gave a GI50 [29] of 5.19 µM, a TGI [29] of 14.4 µM and a GI50 [30] of 5.76 µM. The TGI [30] was 25.9 µM, the GI50 [31] was 18.6 µM and the TGI [31] was greater than 85.7 µM. For the same molecule, the GI50 [32] was 6.7 µM, the TGI [32] was greater than 22.4 µM and the GI50 [33] was 4.68 µM. For the same molecule, the TGI [33] was 13.4 µM, the GI50 [34] was 5.29 µM and the TGI [34] was 10.9 µM. For the same molecule, the GI50 [35] was 1.76 µM, the TGI [35] was 4.93 µM and the GI50 [36] was 6.96 µM. It also gave a TGI [36] of 31.4 µM, a GI50 [37] of 2.99 µM and a TGI [37] of 8.93 µM. It also gave a GI50 [38] of 1.38 µM, a TGI [39] greater than 31.4 µM and a GI50 [40] of 2.57 µM. For the same molecule, the TGI [40] was 4.72 µM, the GI50 [41] was 2.97 µM and the TGI [41] was greater than 29.4 µM. The GI50 [42] was 19.2 µM, the TGI [42] was 45.8 µM and the GI50 [43] was 11 µM. For the same molecule, the TGI [43] was greater than 28.4 µM, the GI50 [44] was 3.39 µM and the TGI [44] was greater than 24.7 µM. The GI50 [45] was 5.52 µM, the TGI [45] was 18.6 µM and the GI50 [46] was 10.3 µM. The TGI [46] was greater than 55.2 µM, the GI50 [47] was 1.65 µM and the TGI [47] was 3.21 µM. The GI50 [48] was 14.4 µM, the TGI [48] was 67.4 µM and the GI50 [49] was 3.88 µM. The TGI [49] was 24.5 µM, the GI50 [50] was 2.79 µM and the TGI [50] was greater than 29.1 µM. It also gave a GI50 [51] of 2.9 µM, a TGI [51] greater than 40.3 µM and a GI50 [52] of 10.8 µM. The TGI [52] was 34.4 µM, the GI50 [53] was 2.12 µM and the TGI [53] was 5.01 µM. The GI50 [54] was 12.7 µM, the TGI [54] was greater than 100 µM and the GI50 [55] was 2.52 µM. The TGI [55] was 6.85 µM, the GI50 [56] was 6.73 µM and the TGI [56] was 14.4 µM.
